# Earlier results, collected in US20150037408A1, “Delayed Release Pharmaceutical Compositions of Salsalate” (priority 2012, published 2015).
# How the values were obtained:
# [1] = patients with osteoarthrosis of the hip or knee
# [2] = 3 grams daily (two 750-mg tablets twice daily) for 15 days
structure (smiles),measurement,setting,value
"O=C(Oc1ccccc1C(=O)O)c1ccccc1O [Salsalate, 2-hydroxybenzoic acid 2-carboxyphenyl ester]",clinical improvement versus aspirin,[1],comparable clinical improvement to that with aspirin
same,side-effects and faecal occult blood loss versus aspirin,[1],significantly superior to aspirin
same,efficacy and safety in arthritic disease,[2],effective and safe in ameliorating the symptoms of arthritic disease
